Data from ChEMBL document CHEMBL3769339, “Synthesis of indole-derived allocolchicine congeners exhibiting pronounced anti-proliferative and apoptosis-inducing properties” (Medchemcomm, 2015).
Activity calls are given as the source filed them. The rule behind the calls is not given here.

Key:
[1] = tested on: BJAB; experiment: Antiproliferative activity against human BJAB cells after 24 hrs by CASY cell counting method; type: functional, cell-based
[2] = tested on: BJAB; experiment: Induction of apoptosis in human BJAB cells assessed as DNA fragmentation after 72 hrs by flow cytometry; type: functional, cell-based
[3] = tested on: BJAB; experiment: Antiproliferative activity against human BJAB cells at AC50 after 24 hrs by CASY cell counting method; type: functional
[4] = tested on: BJAB; experiment: Cytotoxicity against human BJAB cells assessed as necrosis at AC50 after 72 hrs by LDH release assay; type: cell-based
[5] = Inhibition of sheep tubulin polymerization by fluorescence based assay; design: species or system Ovis aries
[6] = tested on: BJAB; experiment: Antiproliferative activity against human BJAB cells assessed as cell count at 0.01 uM after 24 hrs by CASY cell counting method (reference value: 2.02 10^5/ml); type: functional
[7] = tested on: BJAB; experiment: Antiproliferative activity against human BJAB cells assessed as cell count at 0.001 uM after 24 hrs by CASY cell counting method (reference value: 2.02 10^5/ml); type: functional
[8] = tested on: BJAB; experiment: Cytotoxicity against human BJAB cells assessed as necrosis at 5 uM after 1 hr by LDH release assay; type: cell-based
[9] = organism: Ovis aries; experiment: Inhibition of sheep tubulin polymerization at 0.75 to 7.5 uM by fluorescence based assay
[10] = tested on: BJAB; experiment: Antiproliferative activity against human BJAB cells assessed as cell count at 0.005 uM after 24 hrs by CASY cell counting method (reference value: 2.02 10^5/ml); type: functional
[11] = tested on: BJAB; experiment: Antiproliferative activity against human BJAB cells assessed as cell count at 0.1 uM after 24 hrs by CASY cell counting method (reference value: 2.02 10^5/ml); type: functional
[12] = tested on: BJAB; experiment: Antiproliferative activity against human BJAB cells assessed as cell count at 0.5 uM after 24 hrs by CASY cell counting method (reference value: 2.02 10^5/ml); type: functional
[13] = tested on: BJAB; experiment: Antiproliferative activity against human BJAB cells assessed as cell count at 1 uM after 24 hrs by CASY cell counting method (reference value: 2.02 10^5/ml); type: functional
[14] = tested on: BJAB; experiment: Antiproliferative activity against human BJAB cells assessed as cell count at 5 uM after 24 hrs by CASY cell counting method (reference value: 2.02 10^5/ml); type: functional
[15] = tested on: BJAB; experiment: Antiproliferative activity against human BJAB cells assessed as cell count at 10 uM after 24 hrs by CASY cell counting method (reference value: 2.02 10^5/ml); type: functional
[16] = tested on: BJAB; experiment: Antiproliferative activity against human BJAB cells assessed as cell count at 30 uM after 24 hrs by CASY cell counting method (reference value: 2.02 10^5/ml); type: functional
[17] = tested on: BJAB; experiment: Antiproliferative activity against human BJAB cells assessed as cell count at 50 uM after 24 hrs by CASY cell counting method (reference value: 2.02 10^5/ml); type: functional
[18] = tested on: BJAB; experiment: Antiproliferative activity against human BJAB cells assessed as cell count at 100 uM after 24 hrs by CASY cell counting method (reference value: 2.02 10^5/ml); type: functional
[19] = tested on: BJAB; experiment: Antiproliferative activity against human BJAB cells assessed as cell count at 0.05 uM after 24 hrs by CASY cell counting method (reference value: 2.02 10^5/ml); type: functional

SMILES | Activity [1] | IC50 [1] | AC50 [2] | Activity [2] | inhibition (INH) [3] | Activity [4] | IC50 [5] | other results
COc1cc2c(c(OC)c1OC)-c1cc3c(ccn3C)cc1C(O)CC2 (racemic) | Dose-dependent effect | 1 nM | 1 nM | Dose-dependent effect | 52% | 7% | – | –
COc1cc2c(c(OC)c1OC)-c1cc3c(ccn3C)cc1C(N)CC2 (racemic) | Dose-dependent effect | 500 nM | 5000 nM | Dose-dependent effect | 90% | 29% | – | –
COc1cc2c(c(OC)c1OC)-c1cc3c(ccn3C)cc1C(=O)CC2 | Dose-dependent effect | 10 nM | 50 nM | Dose-dependent effect | 98% | 4% | – | –
COc1cc2c(c(OC)c1OC)-c1ccc3c(ccn3C)c1C(O)CC2 (racemic) | – | – | – | – | – | – | 228 nM | –
COc1cc2c(c(OC)c1OC)-c1cc3c(ccn3C)cc1C(NC(C)=O)CC2 (racemic) | Dose-dependent effect | > 100000 nM | > 100000 nM | Dose-dependent effect | – | – | – | –
COc1cc2c(c(OC)c1OC)-c1cc3ccn(C)c3cc1C(O)CC2 (racemic) | – | – | – | – | – | – | 264 nM | –
COc1cc2c(c(OC)c1OC)-c1ccc(OC)c(=O)cc1[C@@H](NC(C)=O)CC2 [COLCHICINE] | Dose-dependent effect | 20 nM | 30 nM | Dose-dependent effect | – | – | 375 nM | –
COc1cc2c(c(OC)c1OC)-c1cc3c(ccn3C)cc1C(OC(C)=O)CC2 (racemic) | Dose-dependent effect | 10 nM | 50 nM | Dose-dependent effect | 89% | 0% | 125 nM | Activity [6]: 1.9 ×10⁵ /ml; Activity [7]: 2 ×10⁵ /ml; Activity [8]: Non-toxic; inhibition [9]: Active; Activity [10]: 1.87 ×10⁵ /ml; Activity [11]: 1.17 ×10⁵ /ml; Activity [12]: 1.21 ×10⁵ /ml; Activity [13]: 1.09 ×10⁵ /ml; Activity [14]: 1.1 ×10⁵ /ml; Activity [15]: 1.13 ×10⁵ /ml; Activity [16]: 1.12 ×10⁵ /ml; Activity [17]: 1.02 ×10⁵ /ml; Activity [18]: 0.97 ×10⁵ /ml; Activity [19]: 1.11 ×10⁵ /ml
COc1ccc(/C=C\c2cc(OC)c(OC)c(OC)c2)cc1O [COMBRETASTATIN A4] | – | – | – | – | – | – | 90 nM | –
COc1cc2c(c(OC)c1OC)-c1cc3c(ccn3C)cc1C(N=[N+]=[N-])CC2 (racemic) | Dose-dependent effect | 50000 nM | > 100000 nM | Dose-dependent effect | 30% | 1% | – | –
